Like-named read-outs stand apart in the source and are kept apart here.
Tested on: phosphorylation of Serine 473 in Akt
Test: In Vitro Phospho-Ser473 Akt Assay in MDA-MB-468 cells
Format: cell-based
Settings: Homo sapiens
[1] = MDA-MB-468, read-out: IC50 values against mTOR, phospho-Ser473 Akt assay, MDA-MB-468 cells
[2] = MDA-MB-468, read-out: IC50 values against mTOR, phospho-Ser473 Akt assay, MDA-MB-468 cells, upper bound

SMILES: COC(=O)c1cccc(-c2ccc3c(N4CCOC[C@@H]4C)nc(N4CCOC[C@@H]4C)nc3n2)c1 [Example 1ba]
- IC50 [1]: < 100 nM

SMILES: C[C@H]1COCCN1c1nc(N2CCOC[C@@H]2C)c2ccc(-c3cccc(C(=O)NCCF)c3)nc2n1 [Example 3e]
- IC50 [1]: < 300 nM

SMILES: COC(=O)c1cc(-c2ccc3c(N4CCOC[C@@H]4C)nc(N4CCOC[C@@H]4C)nc3n2)ccc1OC [Example 1bg]
- IC50 [1]: < 100 nM

SMILES: COc1ccc(-c2ccc3c(N4CCOC[C@@H]4C)nc(N4CCNC(=O)C4)nc3n2)cc1CO [Example 18cf]
- IC50 [1]: < 100 nM

SMILES: COc1ccc(-c2ccc3c(N4CCOC[C@@H]4C)nc(N4CCC(CO)CC4)nc3n2)cc1CO [Example 18x]
- IC50 [1]: < 100 nM

SMILES: COc1ccc(-c2ccc3c(N4CCOC[C@@H]4C)nc(N4CCC(c5ccc(Cl)cc5)CC4)nc3n2)cc1CO [Example 18aq]
- IC50 [1]: < 300 nM

SMILES: Cc1ccc(-c2cnc3c(N4CCOC[C@@H]4C)nc(N4CCOC[C@@H]4C)nc3n2)cc1 [Example 12c]
- IC50 [1]: < 100 nM

SMILES: COCCNc1nc(N2CCOC[C@@H]2C)c2ccc(-c3ccc(OC)c(CO)c3)nc2n1 [Example 18by]
- IC50 [2]: < 1000 nM

SMILES: CCC1CCC(C)N(c2nc(N3CCOC[C@@H]3C)c3ccc(-c4ccc(OC)c(CO)c4)nc3n2)C1 (some centres unmarked) [Example 18bd]
- IC50 [1]: < 100 nM

SMILES: COc1ccc(-c2ccc3c(N4CCOC[C@@H]4C)nc(N4CCOC[C@@H]4C)nc3n2)cc1CNCc1cccs1 [Example 4ap]
- IC50 [1]: < 300 nM

SMILES: C[C@H]1COCCN1c1nc(N2CCOC[C@@H]2C)c2ccc(-c3cnn(C)c3)nc2n1 [Example 1s]
- IC50 [1]: < 100 nM

SMILES: COCCNC(=O)c1cccc(-c2ccc3c(N4CCOC[C@@H]4C)nc(N4CCOC[C@@H]4C)nc3n2)c1 [Example 1be]
- IC50 [1]: < 100 nM

SMILES: COc1ccc(-c2ccc3c(N4CCOC[C@@H]4C)nc(N4CCOC[C@@H]4C)nc3n2)cc1CNC1CCCCC1C (some centres unmarked) [Example 4aw]
- IC50 [1]: < 100 nM

SMILES: C[C@@H]1CN(c2nc(N3CCOC[C@@H]3C)c3ccc(-c4ccc(Cl)cc4)nc3n2)C[C@H](C)O1 [Example 18dh]
- IC50 [1]: < 300 nM

SMILES: COc1ccc(-c2ccc3c(N4CCOC[C@@H]4C)nc(N4CCC(CCO)CC4)nc3n2)cc1CO [Example 18g]
- IC50 [1]: < 100 nM

SMILES: COc1ccc(-c2ccc3c(N4CCOC[C@@H]4C)nc(Nc4ccccn4)nc3n2)cc1CO [Example 18p]
- IC50 [1]: < 300 nM

SMILES: COc1ccc(-c2ccc3c(N4CCOC[C@@H]4C)nc(-c4cccc(CN)c4)nc3n2)cc1CO [Example 19e]
- IC50 [2]: < 1000 nM

SMILES: COc1ccc(-c2ccc3c(N4CCOC[C@@H]4C)nc(N4CCC(c5ccccc5)CC4)nc3n2)cc1CO [Example 18be]
- IC50 [1]: < 100 nM

SMILES: C[C@H]1COCCN1c1nc(N2CCOC[C@@H]2C)c2ccc(-c3cccc(Cl)n3)nc2n1 [Example 1v]
- IC50 (phospho-Ser473 Akt assay, MDA-MB-468 cells, upper bound, read-out: IC50 values against mTOR): < 1000 nM

SMILES: COc1ccc(-c2ccc3c(N4CCOC[C@@H]4C)nc(-c4cccnc4)nc3n2)cc1CO [Example 19j]
- IC50 [1]: < 100 nM

SMILES: C[C@H]1COCCN1c1nc(N2CCOC[C@@H]2C)c2ccc(-c3ccc(F)c(CN(C)C)c3)nc2n1 [Example 4af]
- IC50 [1]: < 100 nM

SMILES: C[C@H]1COCCN1c1nc(N2CCOC[C@@H]2C)c2ccc(-c3ccc(F)c(CNCC4CC4)c3)nc2n1 [Example 4z]
- IC50 [1]: < 100 nM

SMILES: C[C@H]1COCCN1c1nc(N2CCOC[C@@H]2C)c2ccc(-c3ccc(F)c(NS(C)(=O)=O)c3)nc2n1 [Example 1bk]
- IC50 [1]: < 300 nM

SMILES: C[C@H]1COCCN1c1nc(N2CCOC[C@@H]2C)c2ccc(-c3ccc(O)cc3)nc2n1 [Example 1e]
- IC50 [1]: < 100 nM

SMILES: C[C@H]1COCCN1c1nc(-c2cnn(C)c2)nc2nc(-c3cccc(CO)c3)ccc12 [Example 19v]
- IC50 [2]: < 1000 nM

SMILES: C[C@H]1COCCN1c1nc(N2CCOC[C@@H]2C)c2ccc(-c3ccc(F)c(CNCCO)c3)nc2n1 [Example 4ac]
- IC50 [1]: < 100 nM

SMILES: COc1ccc(-c2ccc3c(N4CCOC[C@@H]4C)nc(N4C[C@@H](C)O[C@@H](C)C4)nc3n2)cc1 [Example 1cj]
- IC50 [1]: < 300 nM

SMILES: COc1ccc(-c2ccc3c(N4CCOC[C@@H]4C)nc(N4CCC(C(=O)c5ccc(Cl)cc5)CC4)nc3n2)cc1CO [Example 18ak]
- IC50 [1]: < 100 nM

SMILES: C[C@H]1COCCN1c1nc(N2CCOC[C@@H]2C)c2ccc(-c3cccc(Cn4ccnc4)c3)nc2n1 [Example 4q]
- IC50 [1]: < 300 nM

SMILES: COc1ccc(-c2ccc3c(N4CCOC[C@@H]4C)nc(N4CCC[C@@H](O)C4)nc3n2)cc1CO [Example 18bk]
- IC50 [1]: < 100 nM

SMILES: Cc1cccc(-c2ccc3c(N4CCOC[C@@H]4C)nc(N4CCOC[C@@H]4C)nc3n2)c1 [Example 1br]
- IC50 [1]: < 100 nM

SMILES: C[C@H]1COCCN1c1nc(N2CCOC[C@@H]2C)c2ccc(-c3ccc(F)c(CN4CC[C@H](O)C4)c3)nc2n1 [Example 4ak]
- IC50 [1]: < 100 nM

SMILES: C[C@H]1COCCN1c1nc(N2CCOC[C@@H]2C)c2ccc(-c3cccc(CNCC4CC4)c3)nc2n1 [Example 4n]
- IC50 [1]: < 100 nM

SMILES: COc1ccc(-c2ccc3c(N4CCOC[C@@H]4C)nc(N4CCCCO4)nc3n2)cc1CO [Example 18dd]
- IC50 [1]: < 300 nM

SMILES: C[C@@H]1CN(c2nc(N3CCOC[C@@H]3C)c3ccc(-c4ccncc4)nc3n2)C[C@H](C)O1 [Example 1ce]
- IC50 [2]: < 1000 nM

SMILES: C[C@H]1COCCN1c1nc(N2CCCCC2CO)nc2nc(-c3ccc(N)nc3)ccc12 (some centres unmarked) [Example 2g]
- IC50 [1]: < 300 nM

SMILES: C[C@H]1COCCN1c1nc(N2CCOC[C@@H]2C)c2ccc(-c3ccc(CNC4CC4)o3)nc2n1 [Example 7e]
- IC50 [2]: < 1000 nM

SMILES: C[C@H]1COCCN1c1nc(N2CCOC[C@@H]2C)c2ccc(-c3cccc(CNC(=O)C4CC4)c3)nc2n1 [Example 5c]
- IC50 [1]: < 300 nM

SMILES: C[C@H]1COCCN1c1nc(N2CCOC[C@@H]2C)c2ccc(-c3cccc(CNC4CC4)c3)nc2n1 [Example 4j]
- IC50 [1]: < 100 nM

SMILES: C[C@H]1COCCN1c1nc(N2CCOC[C@@H]2C)c2ccc(-c3ccc(F)c(CNCCF)c3)nc2n1 [Example 4ab]
- IC50 [2]: < 1000 nM

SMILES: C[C@H]1COCCN1c1nc(N2CCOC[C@@H]2C)c2ccc(-c3cccc(C(N)=O)c3)nc2n1 [Example 1as]
- IC50 [1]: < 100 nM

SMILES: COc1ccc(-c2ccc3c(N4CCOC[C@@H]4C)nc(N4CCC[C@@H]4CO)nc3n2)cc1CO [Example 18cm]
- IC50 [1]: < 100 nM

SMILES: CNC(=O)c1ccc(-c2ccc3c(N4CCOC[C@@H]4C)nc(N4CCOC[C@@H]4C)nc3n2)cc1F [Example 1cv]
- IC50 [1]: < 300 nM

SMILES: COc1ccc(-c2ccc3c(N4CCOC[C@@H]4C)nc(-c4cccc(C=O)c4)nc3n2)cc1CO [Example 19b]
- IC50 [1]: < 300 nM

SMILES: C[C@H]1COCCN1c1nc(N2CCOC[C@@H]2C)c2ccc(-c3ccnc(F)c3)nc2n1 [Example 1au]
- IC50 [2]: < 1000 nM

SMILES: CC(=O)NCc1cc(-c2ccc3c(N4CCOC[C@@H]4C)nc(N4CCOC[C@@H]4C)nc3n2)ccc1F [Example 5t]
- IC50 [2]: < 1000 nM

SMILES: C[C@H]1COCCN1c1nc(N2CCOC[C@@H]2C)c2ccc(-c3ccoc3)nc2n1 [Example 1bv]
- IC50 [1]: < 100 nM

SMILES: C[C@H]1COCCN1c1nc(N2CCOC[C@@H]2C)c2ccc(-c3ccc(F)c(CNC4CCOCC4)c3)nc2n1 [Example 4y]
- IC50 [1]: < 100 nM

SMILES: CNc1nc(N2CCOC[C@@H]2C)c2ccc(-c3ccc(OC)c(CO)c3)nc2n1 [Example 18bp]
- IC50 [2]: < 1000 nM

SMILES: CNC(=O)c1cc(-c2ccc3c(N4CCOC[C@@H]4C)nc(N4CCOC[C@@H]4C)nc3n2)ccc1F [Example 1ae]
- IC50 [1]: < 100 nM

SMILES: C[C@H]1COCCN1c1nc(N2CCOC[C@@H]2C)c2ccc(-c3cccc(C(=O)NC4CCOCC4)c3)nc2n1 [Example 3i]
- IC50 [1]: < 100 nM

SMILES: COc1cccc(-c2nc(N3CCOC[C@@H]3C)c3ccc(-c4ccc(OC)c(CO)c4)nc3n2)c1 [Example 19o]
- IC50 [2]: < 1000 nM

SMILES: C[C@H]1COCCN1c1nc(N2CCOC[C@@H]2C)c2ccc(-c3ccc(CNC4CCOCC4)o3)nc2n1 [Example 7f]
- IC50 [1]: < 100 nM

— patent US9102670B2, “Pyrido-, pyrazo- and pyrimido-pyrimidine derivatives as mTOR inhibitors” (KuDOS Pharmaceuticals Limited, priority 2006, dated 2015)
